Reference: patent US9790253B2, “OSW-1 analogs and conjugates, and uses thereof” (priority 2011, dated 2017)

Legend:
[1] = system: CHO-K1 cells; test: Sphingomyelin biosynthesis, [3H]-serine pulse-labeling, CHO-K1; format: cell-based
Protocol: Sphingomyelin is biosynthesized from ceramide at the Golgi apparatus. Ceramide is primarily transported from the ER to the Golgi by ceramide transport protein (CERT), and the transport activity of CERT is both OSBP1- and VAP-A dependent. […] To determine whether the ORPphilins affect sphingomyelin synthesis, pulse-labeling with [^3H]-serine was performed in CHO-K1 and HCT-116 cells and the amount of tritium incorporated into sphingomyelin and other lipids then measured. Cells were treated with vehicle or compound for 6 h, and in the last 2 h the cells were pulsed with 10 μCi [^3H]-serine. Lipids were extracted and isolated by TLC, and label incorporation into sphingomyelin was measured by scintillation counting.

[2] = system: HCT-116 p21^−/− cells with OSBP1-targeting shRNA; test: OSBP1 shRNA knockdown/dose-shift experiment; format: cell-based, human; details: shOSBP1 vs shNT, 72 h
Text: FIG. 3A is a series of four bar graphs depicting knockdown/dose-shift experiment in HCT-116 p21^−/− cells stably transfected with either OSBP1-targeting shRNA (shOSBP1) or non-targeting shRNA (shNT). Bars represent s.d. of three or four individual experiments. * P=0.0002 (n=3); ** P=0.0006 (n=4); *** P=0.0003 (n=3) compared to shNT cells (two-tailed students t-test).
To ascertain if the antiproliferative activity of the ORPphilins depended on the levels of OSBP1 and ORP4L in cells, short hairpin RNA (shRNA) knockdown of OSBP1 expression was performed and then its effect on the growth inhibitory activity of 1, 2, and 4a measured. […] Similar results were obtained in HeLa cells. Overexpression of OSBP1-myc-his or ORP4L-myc-his (FIG. 3C) for 48 h desensitized HeLa cells to the antiproliferative activity of 1, 2, or 4a by ˜2-5-fold (FIG. 3D). However, taxol-induced growth inhibition was not affected by overexpression of OSBP1-myc-his or ORP4L-myc-his (FIG. 3D).

[3] = system: HeLa cells overexpressing OSBP1-myc-his or ORP4L-myc-his; test: Overexpression-viability assay, OSBP1-myc-his or ORP4L-myc-his; format: cell-based; details: 48 h, vs lacZ
Protocol: (§1) Overexpression-viability assays with wild-type and mutant OSBP/ORP4L constructs were carried out by transfecting HeLa cells with the appropriate plasmids using Lipofectamine™ LTX with PLUS™ reagent (Invitrogen) as instructed, and after 8 h of transfection, the cells were re-plated for the cell viability assay, performed as described above. Expression levels were evaluated by immunoblotting at the time of dosing.

[4] = system: HeLa cells overexpressing OSBP1(M446W)-myc-his; test: Overexpression-viability assay, OSBP1(M446W)-myc-his; format: cell-based; details: 48 h
Protocol: as §1
(§2) For additional support that OSBP1 and ORP4L are targets of the ORPphilins, dominant drug-resistant alleles of these proteins were sought. 15 OSBP1 residues inside and outside the region of the protein previously reported to mediate sterol binding were mutated (FIG. 4C). The growth inhibition induced by the ORPphilins was determined in HeLa cells overexpressing either wild-type or mutant OSBP1-myc-his proteins. Expression of wt OSBP1-myc-his and mutant OSBP1-myc-his were nearly equivalent as measured by western blot.
(§3) The same mutant caused a 3.9-fold reduction in the antiproliferative activity of OSW-1 (2) (FIG. 4E2) and a 2.7-fold reduction in the activity of schweinfurthin A (4a) (FIG. 4E3). […] The antiproliferative activity of taxol was unaffected by expression of these two OSBP1 mutant proteins (FIGS. 4E4, 4E8).

[5] = system: HeLa cells overexpressing OSBP1(V582M); test: Overexpression-viability assay, OSBP1(V582M)-myc-his; format: cell-based; details: 48 h
Protocol: as §1, §2, §3

[6] = system: HCT-116 cells; test: Growth inhibition with 25-OHC co-administration; format: cell-based, human; details: 10 μM 25-OHC for 1 and 2
Protocol: 25-OHC (11) is a high-affinity ligand of OSBP1 and ORP4L that is not cytotoxic at concentrations up to 10 μM. Example 1 established that the ORPphilins compete with 25-OHC for binding to OSBP1 and ORP4L (FIG. 2D,E). Therefore, if OSBP1 and ORP4L mediate the biological activities of these compounds, co-administration of sub-lethal doses of 25-OHC with the ORPphilins should inhibit binding of the ORPphilins to OSBP1 and ORP4L, thereby desensitizing cells to the cytotoxic effects of the ORPphilins.

[7] = system: HCT-116 p21^−/−; details: cited from earlier work
[8] = system: HCT-116 p21^+/+; details: cited from earlier work
[9] = molecular target: T1, OSBP1-myc-his (Homo sapiens, UniProt P22059); test: [3H]-25-hydroxycholesterol charcoal-dextran binding assay with OSBP1-myc-his; details: competition with 20 nM [3H]-25-OHC, HEK-293T S100 lysate, 4° C., 16 h; read-out: [^3H]-25-OHC K1 (nM) OSBP1-myc-his
T1 construct: made in house; host or cells: HEK-293T (transient transfection; S100 lysate, not purified)
T1 sequence (P22059 1-807): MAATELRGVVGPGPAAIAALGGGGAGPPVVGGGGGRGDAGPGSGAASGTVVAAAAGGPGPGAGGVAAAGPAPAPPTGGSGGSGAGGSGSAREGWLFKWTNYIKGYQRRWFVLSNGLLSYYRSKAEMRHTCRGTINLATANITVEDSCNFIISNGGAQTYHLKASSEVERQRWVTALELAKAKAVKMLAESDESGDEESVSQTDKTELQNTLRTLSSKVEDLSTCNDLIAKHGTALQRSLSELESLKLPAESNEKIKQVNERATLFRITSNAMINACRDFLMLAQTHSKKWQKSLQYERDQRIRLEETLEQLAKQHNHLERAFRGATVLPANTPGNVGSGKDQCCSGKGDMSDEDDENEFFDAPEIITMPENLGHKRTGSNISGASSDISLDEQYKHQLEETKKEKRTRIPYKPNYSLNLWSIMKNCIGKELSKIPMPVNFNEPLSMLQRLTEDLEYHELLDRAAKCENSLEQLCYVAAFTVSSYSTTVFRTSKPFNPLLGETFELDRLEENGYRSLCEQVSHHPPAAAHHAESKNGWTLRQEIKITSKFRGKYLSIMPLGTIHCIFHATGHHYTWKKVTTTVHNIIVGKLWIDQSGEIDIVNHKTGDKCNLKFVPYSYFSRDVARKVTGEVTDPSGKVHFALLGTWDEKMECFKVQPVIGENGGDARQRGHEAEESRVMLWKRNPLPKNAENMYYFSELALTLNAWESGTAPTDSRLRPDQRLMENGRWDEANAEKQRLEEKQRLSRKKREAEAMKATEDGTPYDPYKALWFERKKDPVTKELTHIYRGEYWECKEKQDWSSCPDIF
Text: [^3H]-25-Hydroxycholesterol charcoal-dextran binding assay.
Methods are described above in the General Methods section.

[10] = system: OSBP1 localization in HCT-116 cells; test: OSBP1 localization by immunofluorescence microscopy, HCT-116; format: cell-based, human; details: 4 h treatment
Protocol: (§4) Immunofluorescence microscopy. HCT-116 or A549 (adenocarcinomic human alveolar basal epithelial) cells were plated on coverslips in 6-well plates. After 72 h, the culture media was removed and replaced with media containing either compound or vehicle control. At the indicated time-points, the cells were fixed for 10 min using 3.7% formaldehyde in PBS. The coverslips were washed with PBS and permeabilized for 5 min with 0.5% Triton X-100 in PBS. Following PBS washing, the coverslips were blocked for 30 min using Image-iT™ FX (Invitrogen), washed with PBS, and then blocked for 30 min at room temperature (RT) with 1% BSA in PBS (BSA/PBS). The coverslips were then incubated overnight at 4° C. with a primary antibody solution in BSA/PBS. The coverslips were washed with BSA/PBS and incubated for 60 min at RT with Alexa Fluor®-conjugated secondary antibodies (Invitrogen) in BSA/PBS, with the final 30 min including incubation with Hoescht 33258. The coverslips were then washed sequentially with BSA/PBS, PBS, and water and finally mounted on microscope slides using Aqua Poly/Mount (Polysciences Inc.). Imaging data was acquired using Zeiss LSM 510 META scanning confocal microscope.
Although the function of OSBP1 is not yet fully elucidated, several cellular activities have been observed. For instance, OSBP1 translocates from cytoplasmic sites to the trans-Golgi network (TGN) upon addition of 25-OHC to cells. HCT-116 cells were treated with ORPphilins for short time periods (4 h) and the effects on OSBP1 localization monitored using immunofluorescence microscopy.
OSBP1 (green) and trans-Golgi protein P230 (red) were visualized in HCT-116 cells using indirect immunofluorescence microscopy. Cells were treated with compound for 4 h, fixed with 3.7% formaldehyde/PBS, washed, and permeabilized using 0.5% Triton X-100 in PBS. Proteins were labelled using specific primary antibodies against OSBP1 and P230 overnight at 4° C. After washing, cells were treated with Alexa Fluor 488 and Alexa Fluor 546 secondary antibodies for 1 h at RT.

[11] = molecular target: T2, ORP4L-myc-his (Homo sapiens, UniProt Q969R2); test: [3H]-25-hydroxycholesterol charcoal-dextran binding assay with ORP4L-myc-his; details: read-out: [^3H]-25-OHC K1 (nM) ORP4L-myc-his; competition with 20 nM [3H]-25-OHC, HEK-293T S100 lysate, 4° C., 16 h
T2 sequence (Q969R2 1-916): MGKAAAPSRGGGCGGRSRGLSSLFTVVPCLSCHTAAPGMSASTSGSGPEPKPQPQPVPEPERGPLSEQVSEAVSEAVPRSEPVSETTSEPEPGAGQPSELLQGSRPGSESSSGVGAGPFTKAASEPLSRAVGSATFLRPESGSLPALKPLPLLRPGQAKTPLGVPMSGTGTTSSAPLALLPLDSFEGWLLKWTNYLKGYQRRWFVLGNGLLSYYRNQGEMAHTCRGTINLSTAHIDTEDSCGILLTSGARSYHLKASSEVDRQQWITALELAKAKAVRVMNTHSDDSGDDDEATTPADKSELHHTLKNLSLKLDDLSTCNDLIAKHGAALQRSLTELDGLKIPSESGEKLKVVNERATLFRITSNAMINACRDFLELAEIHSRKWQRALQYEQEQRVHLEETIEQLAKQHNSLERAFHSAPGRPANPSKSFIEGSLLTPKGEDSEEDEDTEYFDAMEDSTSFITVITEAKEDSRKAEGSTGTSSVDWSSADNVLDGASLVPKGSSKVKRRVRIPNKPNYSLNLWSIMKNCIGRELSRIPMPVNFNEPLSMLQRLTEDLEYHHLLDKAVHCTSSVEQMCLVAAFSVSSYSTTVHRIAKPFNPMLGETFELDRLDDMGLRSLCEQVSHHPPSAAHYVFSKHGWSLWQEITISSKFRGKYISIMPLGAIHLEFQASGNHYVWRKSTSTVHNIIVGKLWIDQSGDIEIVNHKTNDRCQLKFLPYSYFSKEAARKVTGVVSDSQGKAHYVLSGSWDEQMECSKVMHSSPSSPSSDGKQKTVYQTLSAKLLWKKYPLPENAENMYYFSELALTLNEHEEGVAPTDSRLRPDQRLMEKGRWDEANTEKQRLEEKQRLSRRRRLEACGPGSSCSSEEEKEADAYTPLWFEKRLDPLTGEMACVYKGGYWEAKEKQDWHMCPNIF
Protocol: [^3H]-25-Hydroxycholesterol charcoal-dextran binding assay. […] These vectors were transfected into HEK-293T cells using Lipofectamine™2000 (Invitrogen), and 48 h after transfection, on-plate lysis of the transfected cells with the M-Per®/HALT™ with EDTA (ThermoScientific) reagent was performed, followed by ultracentrifugation at 100,000 g. The S100 lysate was diluted to 0.2 mg/mL, aliquoted and stored at −80° C. until use. The HEK-293T OSBP1-, ORP4L- or lacZ-myc-his lysate was incubated with [^3H]-25-hydroxycholesterol at 4° C. for 16 h in 96-well plates. After incubation, charcoal/dextran (C/D) was added to the wells for 30 min of shaking at RT, followed by centrifugation for 15 min at 1900 g to pellet the C/D. The C/D-cleared lysate was added to MicroScint™-20 (PerkinElmer) scintillation fluid, and the remaining protein-bound radiolabel was quantified using a TopCount™ scintillation counter. [^3H]-25-hydroxycholesterol binding curves and competition curves were repeated at least three times.
Lysates were thawed on ice, with brief periods of hand warming. Both the ^3H-25-OHC direct binding assays and the ^3H-25-OHC competition binding assays were set up similarly, with a large stock of binding assay lysate being prepared, then 73.5 μL of the binding assay mixture dispensed using a multi-channel pipettor into “V”-shaped 96-well plates. For the ^3H-25-OHC direct binding assay, 1.5 μL of ^3H-25-OHC and ^3H-25-OHC/40×25-OHC added to the wells in dilutions in 100% ethanol. For the ^3H-25-OHC competition binding assays, ^3H-25-OHC was added to the large stock of binding assay lysate to a final concentration of 20 nM. This ^3H-25-OHC-containing binding lysate was then dispensed using a multi-channel pipettor into the 96-well plates. Then, 1.5 μL of a serial dilution of the inhibitors in either 100% ethanol (25-OHC) or DMSO (the ORPphilins) was added to each well.
The binding lysate used in each well of the 96-well plate consisted of 60 μL of 0.2 mg/mL S100 lysate, 7.5 μL 20% PVA, and 5.6 μL 2M KCl. For ^3H-25-OHC binding curve experiments, 0.4 μL of buffer was then added (total volume per well: 73.5 μL). For the ^3H-25-OHC inhibition competition assays, 0.11 μL of 13.2 μM ^3H-25-OHC and 0.29 μL binding buffer was added for each well (total volume per well: 73.5 μL).
Binding assays were incubated, standing, for 16 h at 4° C. Then 30 μL of the rt C/D solution was multichannel pipetted into new “V’ shaped 96-well plates, and 60 μL of the binding lysate mixture was then added. The plates were briefly, lightly vortexed (˜10 sec), 10 and then rocked at 250 rpm for 30 min at rt. The plates were then centrifuged at 1900 g for 15 min at 4° C. in Microplate Carriers (Sorvall cat. #75006449S) in a Sorvall Legend RT centrifuge. Carefully so as to not disturb the C/D pellet, 30 μL of the supernatant was transferred to 170 μL of Microscint-20 in the OptiPlates. The plates were sealed with the TopSealA-Films, and vigorously vortexed (max speed, >1 min). ^3H-25-OHC detection in the wells was then performed using a TopCount Scintillation detector, counting each well for 2 min. Data was graphed and analyzed using GraphPad PrismS, using non-linear regression to determine KD and K1 values.
Binding experiments were performed at 4° C. for 16 h. Unbound sterol was removed using dextran-coated charcoal, and protein-bound sterol left in the supernatant was quantified by scintillation counting. Ki-values were determined as mean±s.d. from at least three independent experiments.

[12] = system: OSBP1 localization in A549 cells; test: OSBP1 localization by immunofluorescence microscopy, A549; format: cell-based, human
Protocol: as §4
Perturbations of OSBP1 localization by 1, 2, and 4b in A549 cells were also observed.

For `C/C=C(/C)C(=O)O[C@H]1C(C)=C2[C@H]([C@@H]1OC(=O)CCCCCCC)[C@@](C)(OC(C)=O)C[C@H](OC(=O)CCC)[C@@]1(O)[C@H]2OC(=O)[C@@]1(C)O` [thapsigargin], the “inhibition of SM biosynthesis (negative controls)” value [1] was “did not occur”.

With `CC(=O)O[C@H]1C(=O)[C@@]2(C)[C@H]([C@H](OC(=O)c3ccccc3)[C@]3(O)C[C@H](OC(=O)[C@H](O)[C@@H](NC(=O)c4ccccc4)c4ccccc4)C(C)=C1C3(C)C)[C@]1(OC(C)=O)CO[C@@H]1C[C@@H]2O` [taxol] the “sensitization by OSBP1 knockdown (GI50 shift)” value [2] was “did not sensitize”, the “desensitization by overexpression of OSBP1-myc-his or ORP4L-myc-his” value [3] was “not affected” and the “reduction in antiproliferative activity at the GI50 level, OSBP1(M446W) vs wt OSBP1” value [4] was “unaffected”. For the same compound, the “reduction in antiproliferative activity, OSBP1(V582M) vs wt OSBP1” value [5] was “unaffected”, the “effect of 25-OHC co-administration on the antiproliferative activity” value [6] was “did not affect” and the “inhibition of SM biosynthesis (negative controls)” value [1] was “did not occur”.

For `CC(/C=C/C=C(C)/C=C/C=C(\C)C(=O)O)=C1/C(=O)C[C@H]2[C@@]3(C)CCC(=O)C(C)(C)[C@@H]3CC[C@]12C` [(−)-stellettin E, (−)-Stellettin E], the GI50 [7] is listed as 39 nM, the “times more cytotoxic to HCT-116 p21−/− than to parental HCT-116” value [7] is listed as 117 times and the GI50 [8] is listed as 4.57 µM.

For ritterazine B, the Ki [9] was 28 ± 4 nM, the OSBP1 localization [10] was “effect was also observed” and the Ki [11] was greater than 360 nM.

With `COc1cc(/C=C/c2cc(O)c(C/C=C(\C)CCC=C(C)C)c(O)c2)cc2c1O[C@]1(C)C[C@@H](O)[C@@H](O)C(C)(C)[C@H]1C2` [Schweinfurthin B, schweinfurthin B] the OSBP1 localization [12] was “perinuclear OSBP1-staining similar to 25-OHC”.
